Test results reported in patent publication EP4745117A1, “NOVEL INDENONE DERIVATIVE AND USE THEREOF” (Amyloid Solution Inc., priority 2023, dated 2025).
Where two headings read alike, the source gives them in different places.

Legend:
[1] = target: Tau-RD3 (Tau repeat domain 3) (Homo sapiens, UniProt P10636); assay: Tau disaggregation test by Thioflavin-T analysis; assay type: biochemical
Procedure: (§1) Each compound was dissolved in DMSO to a concentration of 10 mM. Then, the compounds were diluted with 6 % DMSO (in DW) for use.
(§2) Amyloid-beta and tau solutions were prepared by dissolving Aβ1-42 or Tau-RD3 (Tau repeat domain 3) monomers in DMSO to a concentration of 10 mM. Then, the solutions were diluted to 100 µM with DW and stored on ice.
(§3) Meanwhile, Thioflavin-T was dissolved in 50 mM glycine buffer (pH 8.5) to a concentration of 5 mM. Then, the solution was diluted to 5 µM with 50 mM glycine buffer (pH 8.5) and stored in the dark, protected from light.
(§4) The amyloid-beta and tau solutions prepared in Example 1.1 were each placed in 1.5 mL microcentrifuge tubes to a concentration of 50 µM or 35 µM, respectively, and then reacted at 37 °C for 24 hours.
(§5) To each 1.5 mL microcentrifuge tube in which the amyloid-beta and tau aggregation was complete, the compounds were added at concentrations ranging from 500 µM down to 0 µM by serial dilution, and then further reacted at 37 °C for 48 hours.
(§6) 25 µL of each completed reaction solution was added to each well of a 96-well fluorescence analysis plate, and 75 µL of the Thioflavin-T solution was added to each well. After reacting for 5 minutes at room temperature in the dark, the fluorescence value was measured at 450 nm (excitation) and 485 nm (emission) using a multi-mode microplate reader.
(§7) The fluorescence value of the group (control group) treated with only amyloid-beta or tau and aggregated for 72 hours was designated as 100 %. The fluorescence values measured after treating the amyloid-beta and tau aggregates (formed by reacting for 24 hours) with each compound by concentration and reacting for an additional 48 hours were converted to relative values.

[2] = target: T1, Aβ1-42 (Homo sapiens, UniProt P05067); assay: Amyloid-beta disaggregation test by Thioflavin-T analysis; assay type: biochemical
T1 construct: dissolving Aβ1-42 or Tau-RD3 (Tau repeat domain 3) monomers in DMSO
Procedure: as §1, §2, §3, §4, §5, §6, §7

[3] = Tau-RD3 35 µM aggregated 24 hours, then compound 0 - 500 µM for 48 hours at 37 °C; concentration disaggregating 50 % of aggregates vs control; read-out: EC50 (µM) Tau
[4] = Aβ1-42 50 µM aggregated 24 hours, then compound 0 - 500 µM for 48 hours at 37 °C; concentration disaggregating 50 % of aggregates vs control; read-out: EC50 (µM) Aβ
[5] = statement in words summarising the Thioflavin-T results

Chain of Tau-RD3 (Tau repeat domain 3) (P10636 623-653 limits assumed): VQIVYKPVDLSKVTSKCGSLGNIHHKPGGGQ
T1 sequence (P05067 672-713 limits assumed): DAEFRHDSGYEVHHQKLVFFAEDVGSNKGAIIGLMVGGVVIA

Compound | EC50 [1, 3] [µM] | EC50 [2, 4] [µM] | EC50 ([1]; read-out: EC50 (µM) Tau; Tau-RD3 35 µM aggregated 24 hours, then compound 0 - 500 µM for 48 hours at 37 °C; concentration disaggregating 50 % of aggregates vs control) [µM] | EC50 ([2]; read-out: EC50 (µM) Aβ; Aβ1-42 50 µM aggregated 24 hours, then compound 0 - 500 µM for 48 hours at 37 °C; concentration disaggregating 50 % of aggregates vs control) [µM] | disaggregation effect for tau protein aggregates [1, 5] | disaggregation effect for amyloid-beta protein aggregates [2, 5]
Cc1ncsc1C1=C(c2cccnc2)C(=O)c2cc(N(C)C)ccc21 [Compound 62, 6-(dimethylamino)-3-(4-methylthiazol-5-yl)-2-(pyridin-3-yl)-1H-inden-1-one] | > 250 | > 250 |  |  |  | 
Cc1cccc(C)c1C1=C(c2ccccc2)C(=O)c2cc(Cl)ccc21 [Compound 72-7, 6-chloro-3-(2,6-dimethylphenyl)-2-phenyl-1H-inden-1-one] | > 250 | < 20 |  |  |  | 
CN1CCN(c2ccc3c(c2)C(=O)C(c2cccc(N4CCOCC4)c2)=C3c2ccccc2)CC1 [Compound 73, 6-(4-methylpiperazin-1-yl)-2-(3-morpholinophenyl)-3-phenyl-1H-inden-1-one] | 100 to 250 | 100 to 250 |  |  |  | 
Cc1ncsc1C1=C(c2cccc(CN3CCOCC3)c2)C(=O)c2ccccc21 [Compound 89, 3-(4-methylthiazol-5-yl)-2-(3-(morpholinomethyl)phenyl)-1H-inden-1-one] | 100 to 250 | 20 to 100 |  |  |  | 
Cc1ncsc1C1=C(c2cccnc2)C(=O)c2cc(NCC3CCOCC3)ccc21 [Compound 52, 3-(4-methylthiazol-5-yl)-2-(pyridin-3-yl)-6-(((tetrahydro-2H-pyran-4-yl)methyl)amino)-1H-inden-1-one] | > 250 | > 250 |  |  |  | 
O=C1C(c2ccccc2)=C(c2ccccc2)c2ccc(OCCCc3ccccc3)cc21 [Compound 78, 2,3-diphenyl-6-(3-phenylpropoxy)-1H-inden-1-one] | > 250 | 100 to 250 |  |  |  | 
Cc1ncsc1C1=C(c2ccn(C)n2)C(=O)c2cc(OCCCc3ccccc3)ccc21 [Compound 26, 2-(1-methyl-1H-pyrazol-3-yl)-3-(4-methylthiazol-5-yl)-6-(3-phenylpropoxy)-1H-inden-1-one] | > 250 | < 20 |  |  |  | 
CC(C)Oc1ccc2c(c1)C(=O)C(c1ccccc1)=C2c1ccccc1 [Compound 4, isopropoxy-2,3-diphenyl-1H-inden-1-one] |  |  | > 250 | 20 to 100 |  | 
Cc1ncsc1C1=C(c2cccnc2)C(=O)c2cc(NC(=O)C3CCOCC3)ccc21 [Compound 61, N-(3-(4-methylthiazol-5-yl)-1-oxo-2-(pyridin-3-yl)-1H-inden-6-yl)tetrahydro-2H-pyran-4-carboxamide] | > 250 | > 250 |  |  |  | 
Cc1ncsc1C1=C(c2cccnc2)C(=O)c2cc(NC3CCCN(c4ccccc4)C3)ccc21 (centres unmarked) [Compound 58, 3-(4-methylthiazol-5-yl)-6-((1-phenylpiperidin-3-yl)amino)-2-(pyridin-3-yl)-1H-inden-1-one] | > 250 | < 20 |  |  |  | 
CNc1ccc2c(c1)C(=O)C(c1cccnc1)=C2c1scnc1C [Compound 50, 6-(methylamino)-3-(4-methylthiazol-5-yl)-2-(pyridin-3-yl)-1H-inden-1-one] | > 250 | > 250 |  |  |  | 
Cc1ncsc1C1=C(c2cccnc2)C(=O)c2cc(NCCO)ccc21 [Compound 53, 6-((2-hydroxyethyl)amino)-3-(4-methylthiazol-5-yl)-2-(pyridin-3-yl)-1H-inden-1-one] | > 250 | > 250 |  |  |  | 
O=C1C(c2cccnc2)=C(c2cn[nH]c2)c2ccc(OCCCc3ccccc3)cc21 [Compound 43, 6-(3-phenylpropoxy)-3-(1H-pyrazol-4-yl)-2-(pyridin-3-yl)-1H-inden-1-one] | > 250 | > 250 |  |  |  | 
Cc1ncsc1C1=C(c2ccc(N3CCN(C)CC3)cc2)C(=O)c2ccccc21 [Compound 85, 2-(4-(4-methylpiperazin-1-yl)phenyl)-3-(4-methylthiazol-5-yl)-1H-inden-1-one] | > 250 | > 250 |  |  |  | 
CCCOc1ccc2c(c1)C(=O)C(c1ccccc1)=C2c1ccccc1 [Compound 3, 2,3-diphenyl-6-propoxy-1H-inden-1-one] | > 250 | < 20 |  |  |  | 
Cc1ncsc1C1=C(c2ccncc2)C(=O)c2cc(OCCCc3ccccc3)ccc21 [Compound 39, 3-(4-methylthiazol-5-yl)-6-(3-phenylpropoxy)-2-(pyridin-4-yl)-1H-inden-1-one] | > 250 | < 20 |  |  |  | 
O=C1C(c2cncs2)=C(c2cncs2)c2ccc(O)cc21 [Compound 83-6, 6-hydroxy-2,3-di(thiazol-5-yl)-1H-inden-1-one] | 100 to 250 | > 250 |  |  |  | 

Further lines, with some results ahead:

EC50 [1, 3] [µM] | EC50 [2, 4] [µM] | EC50 ([1]; read-out: EC50 (µM) Tau; Tau-RD3 35 µM aggregated 24 hours, then compound 0 - 500 µM for 48 hours at 37 °C; concentration disaggregating 50 % of aggregates vs control) [µM] | EC50 ([2]; read-out: EC50 (µM) Aβ; Aβ1-42 50 µM aggregated 24 hours, then compound 0 - 500 µM for 48 hours at 37 °C; concentration disaggregating 50 % of aggregates vs control) [µM] | Compound | disaggregation effect for tau protein aggregates [1, 5] | disaggregation effect for amyloid-beta protein aggregates [2, 5]
20 to 100 | 20 to 100 |  |  | Cc1ncsc1C1=C(c2scnc2C)c2ccc(N3CCN(CCO)CC3)cc2C1=O [Compound 81, 6-(4-(2-hydroxyethyl)piperazin-1-yl)-2,3-bis(4-methylthiazol-5-yl)-1H-inden-1-one] |  | 
< 20 | < 20 |  |  | COc1cc(OCCCc2ccccc2)cc2c1C(c1scnc1C)=C(c1cccnc1)C2=O [Compound 47, 4-methoxy-3-(4-methylthiazol-5-yl)-6-(3-phenylpropoxy)-2-(pyridin-3-yl)-1H-inden-1-one] | remarkably excellent disaggregation effect | remarkably excellent disaggregation effect
< 20 | < 20 |  |  | Cc1ncsc1C1=C(c2scnc2C)c2ccc(OCCCc3ccccc3)cc2C1=O [Compound 77, 2,3-bis(4-methylthiazol-5-yl)-6-(3-phenylpropoxy)-1H-inden-1-one] |  | 
20 to 100 | < 20 |  |  | Cc1ccccc1C1=C(c2ccccc2C)c2ccc(O)cc2C1=O [Compound 82, 6-hydroxy-2,3-di-o-tolyl-1H-inden-1-one] |  | 
< 20 | < 20 |  |  | Cc1ccncc1C1=C(c2scnc2C)c2ccc(OCCCc3ccccc3)cc2C1=O [Compound 21, 2-(4-methylpyridin-3-yl)-3-(4-methylthiazol-5-yl)-6-(3-phenylpropoxy)-1H-inden-1-one] | remarkably excellent disaggregation effect | remarkably excellent disaggregation effect
< 20 | 20 to 100 |  |  | Cc1ncsc1C1=C(c2ccc(CN3CCN(C)CC3)cc2)C(=O)c2ccccc21 [Compound 86, 2-(4-((4-methylpiperazin-1-yl)methyl)phenyl)-3-(4-methylthiazol-5-yl)-1H-inden-1-one] |  | 
20 to 100 | < 20 |  |  | Cc1ncsc1C1=C(c2cccc(CN3CCN(C)CC3)c2)C(=O)c2ccccc21 [Compound 88, 2-(3-((4-methylpiperazin-1-yl)methyl)phenyl)-3-(4-methylthiazol-5-yl)-1H-inden-1-one] |  | 
< 20 | < 20 |  |  | Cc1ncsc1C1=C(c2cnn(C)c2)C(=O)c2cc(OCCCc3ccccc3)ccc21 [Compound 28, 2-(1-methyl-1H-pyrazol-4-yl)-3-(4-methylthiazol-5-yl)-6-(3-phenylpropoxy)-1H-inden-1-one] | remarkably excellent disaggregation effect | remarkably excellent disaggregation effect
20 to 100 | 20 to 100 |  |  | Cc1ncsc1C1=C(c2ccc(CN3CCN(C)CC3)cc2)c2ccccc2C1=O [Compound 92, 3-(4-((4-methylpiperazin-1-yl)methyl)phenyl)-2-(4-methylthiazol-5-yl)-1H-inden-1-one] |  | 
20 to 100 | 100 to 250 |  |  | Cc1ncsc1C1=C(c2cccnc2)C(=O)c2cc(OCCO)ccc21 [Compound 36, 6-(2-hydroxyethoxy)-3-(4-methylthiazol-5-yl)-2-(pyridin-3-yl)-1H-inden-1-one] |  | 
< 20 | < 20 |  |  | Cc1ncsc1C1=C(c2cn(C)nn2)C(=O)c2cc(OCCCc3ccccc3)ccc21 [Compound 32, 2-(1-methyl-1H-1,2,3-triazol-4-yl)-3-(4-methylthiazol-5-yl)-6-(3-phenylpropoxy)-1H-inden-1-one] |  | 
20 to 100 | 20 to 100 |  |  | COc1ccc2c(c1)C(=O)C(c1cncs1)=C2c1cncs1 [Compound 83-5, 6-methoxy-2,3-di(thiazol-5-yl)-1H-inden-1-one] |  | 
< 20 | 20 to 100 |  |  | Cc1ncsc1C1=C(c2cccnc2)C(=O)c2cc(NC(=O)CCc3ccccc3)ccc21 [Compound 60, N-(3-(4-methylthiazol-5-yl)-1-oxo-2-(pyridin-3-yl)-1H-inden-6-yl)-3-phenylpropanamide] |  | 
20 to 100 | 20 to 100 |  |  | O=C1C(c2ccccc2)=C(c2cccnc2)c2ccccc21 [Compound 9, 2-phenyl-3-(pyridin-3-yl)-1H-inden-1-one] |  | 
